Legend:
surinam grass = assay: Test B pre/postemergence surinam grass; assay type: in vivo, Brachiaria decumbens
In short: (§1)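 Test chemicals in a non-phytotoxic solvent mixture with surfactant were sprayed preemergence onto planted seeds and postemergence onto plants 2 to 18 cm tall (1- to 4-leaf stage). After twelve to sixteen days in a greenhouse, injury was visually rated against untreated controls from 0 (no effect) to 10 (complete control).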

rice = assay: Test B flood test rice; assay type: in vivo, Oryza sativa
In short: (§2)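 Each value is a visual injury score relative to controls, with 10 meaning complete control and 0 no effect. Evaluation took place twelve to sixteen days after the 2-leaf-stage plants were treated and kept in the greenhouse.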

bedstraw = assay: Test B pre/postemergence bedstraw; assay type: in vivo, Galium aparine
In short: as §1

smallflower flatsedge = assay: Test B flood test smallflower flatsedge; assay type: in vivo, Cyperus difformis
In short: as §2

blackgrass = assay: Test B pre/postemergence blackgrass; assay type: in vivo, Alopecurus myosuroides
In short: as §1

wheat = assay: Test B pre/postemergence wheat; assay type: in vivo, Triticum aestivum
In short: as §1

wild oat = assay: Test B pre/postemergence wild oat; assay type: in vivo, Avena fatua
In short: as §1

purple nutsedge = assay: Test B pre/postemergence purple nutsedge; assay type: in vivo, Cyperus rotundus
In short: as §1

crabgrass = assay: Test B pre/postemergence crabgrass; assay type: in vivo, Digitaria sanguinalis
In short: as §1

duck salad = assay: Test B flood test duck salad; assay type: in vivo, Heteranthera limosa
In short: as §2

sugar beet = assay: Test B pre/postemergence sugar beet; assay type: in vivo, Beta vulgaris
In short: as §1

soybean = assay: Test B pre/postemergence soybean; assay type: in vivo, Glycine max
In short: as §1

rape = assay: Test B pre/postemergence rape; assay type: in vivo, Brassica napus
In short: as §1

corn = assay: Test B pre/postemergence corn; assay type: in vivo, Zea mays
In short: as §1

velvetleaf = assay: Test B pre/postemergence velvetleaf; assay type: in vivo, Abutilon theophrasti
In short: as §1

cocklebur = assay: Test B pre/postemergence cocklebur; assay type: in vivo, Xanthium strumarium
In short: as §1

bamyardgrass = assay: Test B flood test barnyardgrass; assay type: in vivo, Echinochloa crus-galli
In short: as §2

[1] = Preemergence, Rate 62 g/ha, scale of 0 to 10 where 0 is no effect and 10 is complete control
[2] = Preemergence, Rate 250 g/ha, scale of 0 to 10 where 0 is no effect and 10 is complete control
[3] = Preemergence, Rate 500 g/ha, scale of 0 to 10 where 0 is no effect and 10 is complete control
[4] = Rate 62 g/ha, Postemergence, scale 0 to 10, 0 no effect, 10 complete control
[5] = Rate 125 g/ha, Postemergence, scale of 0 to 10 where 0 is no effect and 10 is complete control
[6] = Rate 125 g/ha, Preemergence, scale of 0 to 10 where 0 is no effect and 10 is complete control
[7] = Rate 250 g/ha, Postemergence, scale of 0 to 10 where 0 is no effect and 10 is complete control
[8] = Rate 500 g/ha, Postemergence, scale 0 to 10, 0 no effect, 10 complete control
[9] = Rate 62 g/ha, headed Pre-emergence (flood test species), scale 0 to 10 (0 no effect, 10 complete control)
[10] = Rate 125 g/ha, Pre-emergence, flood test species, scale 0 to 10 where 0 is no effect and 10 is complete control
[11] = Rate 250 g/ha, Pre-emergence, flood-test species, scale 0 to 10, 0 is no effect, 10 is complete control
[12] = Rate 500 g/ha, Pre-emergence, flood test species, scale 0 to 10 (0 no effect, 10 complete control)

`CC(C)N(C(=O)n1oc(=O)n(C2CCCC2)c1=O)c1ccc(Cl)cc1` [Compound 282] was tested, and the “B. signalgrass plant response rating” value (surinam grass; [1]) was 0, the “B. signalgrass plant response rating” value (surinam grass; [2]) was 2 and the “Plant response rating, B. signalgrass” value (surinam grass; [3]) was 7. The “B. signalgrass plant response rating” value (surinam grass; [4]) was 0, the “B. signalgrass plant response rating” value (surinam grass; [5]) was 0 and the “B. signalgrass plant response rating” value (surinam grass; [6]) was 1. For the same molecule, the “Plant response rating, B. signalgrass” value (surinam grass; [7]) was 0, the “B. signalgrass plant response rating” value (surinam grass; [8]) was 2 and the “Rice plant response rating” value (rice; [9]) was 0. The “Rice plant response rating” value (rice; [10]) was 0, the “Rice plant response rating” value (rice; [11]) was 0 and the “Rice plant response rating” value (rice; [12]) was 0. For the same molecule, the “Bedstraw plant response rating” value (bedstraw; [1]) was 0, the “Bedstraw plant response rating” value (bedstraw; [2]) was 2 and the “Plant response rating, Bedstraw” value (bedstraw; [3]) was 2. The “Bedstraw plant response rating” value (bedstraw; [4]) was 5, the “Bedstraw plant response rating” value (bedstraw; [5]) was 5 and the “Plant response rating, Bedstraw” value (bedstraw; [7]) was 7. The “Bedstraw plant response rating” value (bedstraw; [8]) was 8, the “S. Flatsedge plant response rating” value (smallflower flatsedge; [9]) was 0 and the “S. Flatsedge plant response rating” value (smallflower flatsedge; [10]) was 0. The “S. Flatsedge plant response rating” value (smallflower flatsedge; [11]) was 2, the “S. Flatsedge plant response rating” value (smallflower flatsedge; [12]) was 4 and the “Blackgrass plant response rating” value (blackgrass; [1]) was 0. For the same molecule, the “Blackgrass plant response rating” value (blackgrass; [2]) was 4, the “Plant response rating, Blackgrass” value (blackgrass; [3]) was 8 and the “Blackgrass plant response rating” value (blackgrass; [4]) was 0. For the same molecule, the “Blackgrass plant response rating” value (blackgrass; [5]) was 2, the “Blackgrass plant response rating” value (blackgrass; [6]) was 1 and the “Plant response rating, Blackgrass” value (blackgrass; [7]) was 5. The “Blackgrass plant response rating” value (blackgrass; [8]) was 8, the “Wheat plant response rating” value (wheat; [1]) was 0 and the “Wheat plant response rating” value (wheat; [2]) was 0. The “Plant response rating, Wheat” value (wheat; [3]) was 0, the “Wheat plant response rating” value (wheat; [4]) was 0 and the “Wheat plant response rating” value (wheat; [5]) was 0. For the same molecule, the “Wheat plant response rating” value (wheat; [6]) was 0, the “Plant response rating, Wheat” value (wheat; [7]) was 0 and the “Wheat plant response rating” value (wheat; [8]) was 0. For the same molecule, the “Wild oats plant response rating” value (wild oat; [1]) was 0, the “Wild oats plant response rating” value (wild oat; [2]) was 5 and the “Plant response rating, Wild oats” value (wild oat; [3]) was 7. The “Wild oats plant response rating” value (wild oat; [4]) was 0, the “Wild oats plant response rating” value (wild oat; [5]) was 0 and the “Plant response rating, Wild oats” value (wild oat; [7]) was 0. The “Wild oats plant response rating” value (wild oat; [8]) was 0, the “Nutsedge plant response rating” value (purple nutsedge; [1]) was 0 and the “Nutsedge plant response rating” value (purple nutsedge; [2]) was 0. The “Nutsedge plant response rating” value (purple nutsedge; [4]) was 0, the “Nutsedge plant response rating” value (purple nutsedge; [5]) was 0 and the “Nutsedge plant response rating” value (purple nutsedge; [6]) was 0. The “Plant response rating, Nutsedge” value (purple nutsedge; [7]) was 0, the “Nutsedge plant response rating” value (purple nutsedge; [8]) was 0 and the “Crabgrass plant response rating” value (crabgrass; [1]) was 1. The “Crabgrass plant response rating” value (crabgrass; [2]) was 6, the “Plant response rating, Crabgrass” value (crabgrass; [3]) was 8 and the “Crabgrass plant response rating” value (crabgrass; [4]) was 0. The “Crabgrass plant response rating” value (crabgrass; [5]) was 0, the “Crabgrass plant response rating” value (crabgrass; [6]) was 1 and the “Plant response rating, Crabgrass” value (crabgrass; [7]) was 0. For the same molecule, the “Crabgrass plant response rating” value (crabgrass; [8]) was 0, the “Ducksalad plant response rating” value (duck salad; [9]) was 0 and the “Ducksalad plant response rating” value (duck salad; [10]) was 0. For the same molecule, the “Ducksalad plant response rating” value (duck salad; [11]) was 0, the “Ducksalad plant response rating” value (duck salad; [12]) was 0 and the “Sugarbeets plant response rating” value (sugar beet; [1]) was 0. The “Sugarbeets plant response rating” value (sugar beet; [2]) was 0, the “Plant response rating, Sugarbeets” value (sugar beet; [3]) was 3 and the “Sugarbeets plant response rating” value (sugar beet; [4]) was 2. The “Sugarbeets plant response rating” value (sugar beet; [5]) was 6, the “Sugarbeets plant response rating” value (sugar beet; [6]) was 0 and the “Plant response rating, Sugarbeets” value (sugar beet; [7]) was 7. The “Sugarbeets plant response rating” value (sugar beet; [8]) was 7, the “Soybean plant response rating” value (soybean; [1]) was 0 and the “Soybean plant response rating” value (soybean; [2]) was 0. The “Plant response rating, Soybean” value (soybean; [3]) was 0, the “Soybean plant response rating” value (soybean; [4]) was 3 and the “Soybean plant response rating” value (soybean; [5]) was 3. The “Soybean plant response rating” value (soybean; [6]) was 0, the “Plant response rating, Soybean” value (soybean; [7]) was 4 and the “Soybean plant response rating” value (soybean; [8]) was 4. The “Rape plant response rating” value (rape; [1]) was 0, the “Rape plant response rating” value (rape; [2]) was 7 and the “Plant response rating, Rape” value (rape; [3]) was 2. The “Rape plant response rating” value (rape; [4]) was 2, the “Rape plant response rating” value (rape; [5]) was 3 and the “Rape plant response rating” value (rape; [6]) was 0. For the same molecule, the “Plant response rating, Rape” value (rape; [7]) was 6, the “Rape plant response rating” value (rape; [8]) was 8 and the “Corn plant response rating” value (corn; [1]) was 0. For the same molecule, the “Corn plant response rating” value (corn; [2]) was 0, the “Plant response rating, Corn” value (corn; [3]) was 0 and the “Corn plant response rating” value (corn; [4]) was 0. For the same molecule, the “Corn plant response rating” value (corn; [5]) was 0, the “Corn plant response rating” value (corn; [6]) was 0 and the “Plant response rating, Corn” value (corn; [7]) was 0. For the same molecule, the “Corn plant response rating” value (corn; [8]) was 0, the “Velvetleaf plant response rating” value (velvetleaf; [1]) was 0 and the “Velvetleaf plant response rating” value (velvetleaf; [2]) was 0. For the same molecule, the “Plant response rating, Velvetleaf” value (velvetleaf; [3]) was 0, the “Velvetleaf plant response rating” value (velvetleaf; [4]) was 0 and the “Velvetleaf plant response rating” value (velvetleaf; [5]) was 0. The “Velvetleaf plant response rating” value (velvetleaf; [6]) was 0, the “Plant response rating, Velvetleaf” value (velvetleaf; [7]) was 3 and the “Velvetleaf plant response rating” value (velvetleaf; [8]) was 3. For the same molecule, the “Plant response rating, Cocklebur” value (cocklebur; [3]) was 0, the “Cocklebur plant response rating” value (cocklebur; [4]) was 0 and the “Cocklebur plant response rating” value (cocklebur; [5]) was 0. The “Cocklebur plant response rating” value (cocklebur; [6]) was 0, the “Plant response rating, Cocklebur” value (cocklebur; [7]) was 2 and the “Cocklebur plant response rating” value (cocklebur; [8]) was 2. The “Barnyardgrass plant response rating” value (bamyardgrass; [9]) was 7, the “Barnyardgrass plant response rating” value (bamyardgrass; [10]) was 7 and the “Barnyardgrass plant response rating” value (bamyardgrass; [11]) was 9. The “Barnyardgrass plant response rating” value (bamyardgrass; [12]) was 9.

Source: US6737383B1, “Herbicidal oxadiazolidines” (priority 1999, dated 2004)
